# Measured values: patent publication US11879021B2, “Cyclic peptides and uses thereof” (UNIVERSITÉ DE MONTRÉAL, priority 2016, dated 2024)
# Assays:
# [1] = test system: R-FSL-1 (TLR2 agonist)-induced TNF-α and CCL-2 release in RAW macrophages; experiment: R-FSL-1-induced TNF-α and CCL-2 release in RAW macrophages; type: cell-based, murine; details: 10^−7 M
# Experimental: The murine RAW1 macrophage cell line was obtained from American Type Cell Collection (ATCC #TIB-71). RAW cells were seeded at 150,000 cells per well in a 48-well plate (Costar® #3548) and weaned overnight in medium (DMEM supplemented 1% penicillin/streptomycin) at 37° C. with 5% CO2. The next day, the medium was changed to DMEM-1% penicillin/streptomycin supplemented with 0.2% BSA. The cells were first pretreated with 300 μL of azapeptides DBG178 (MPE-133, reference standard), 25 (MPE-210), 26 (MPE-266), 28 (MPE-268), 32 (MPE-267), 33 (MPE-298), 38 (MPE-308), 35 (MPE-300), 39 (MPE-310) and azaLys6-GHRP-6 (as negative control) at 10^-7M for 30 min. Then, […] of the TLR2 agonist, R-FSL-1 (300 ng/ml final concentration, R-FSL-1, Invivogen® #L7022) was added for 4 h period of incubation at 37° C. with 5% CO2. At the end of the incubation period, media were collected and stored at −80° C. for TNF-α and CCL-2 assays using ELISA kits (EbioScience® #88-7391 and #88-7324). Results were analyzed by analysis of variance (ANOVA) with post hoc comparisons using Dunnett's test with a statistical software package (Graph Pad Prism® version 7.0). P<0.05 was considered statistically significant.
# [2] = biological target: T1, CD36 (Rattus norvegicus, UniProt Q07969); experiment: Competition binding of photoactivatable [125I]-Tyr-Bpa-Ala-Hexarelin to CD36 in rat cardiac membranes; details: competition with [125I]-Tyr-Bpa-Ala-Hexarelin, rat heart membranes; for IC50: read-out: IC50 (μM), binding affinity for CD36
# T1 construct: from tissue; host or cells: Heart (cardiac membranes) of Sprague Dawley rats from Charles River
# Experimental: Hearts from Sprague Dawley rats (300-325 g) from Charles River were cut into small pieces and homogenized with a Polytron® at low speed, 3×15 sec in buffer A (10 mM NaHCO3, 5 mM NaN3, 10 μM Pefabloc®, 0.1 μM Aprotinin, 1 μM Pepstatin A, 1 μM Leupeptin, pH 7.0) at a concentration of […] of tissue. The homogenate was first centrifuged at 8,700×g for 20 min in a Sorvall® centrifuge and the supernatant was collected on ice. The pellet was resuspended and re-homogenized with a Glass-Teflon® Potter by 5 strokes. This homogenate was recentrifuged at 8,700×g for 10 min and the resulting supernatant was combined with the first collected supernatant. The combined supernatant was centrifuged at 35,000×g for 20 min. The pellet fraction obtained was resuspended in Buffer B (20 mM Tris-maleate, 0.6M KCl, pH 6.8) in a volume corresponding to 20 mL/g of fresh tissue using a glass homogenizer with a Teflon pestle. The resulting suspension was centrifuged again at 35,000×g for 60 min. and the pellet fraction obtained was resuspended in Buffer C (10 mM Tris/HCl buffer pH 7.4) and thoroughly homogenized in a glass with a Teflon® pestle (20 ml/g of fresh tissue). This suspension was submitted to another centrifugation at 35,000×g for 60 min. The collected pellet was resuspended in 50 mM Tris/HCl buffer pH 7.4) containing 2 mM EGTA in a final volume corresponding to 1-2 mL/g of fresh tissue. The membrane preparation obtained was frozen at −80° C. Protein concentration was determined using the bicinchoninic acid (BCA) method, employing BSA as standard.
# The reaction was started by adding 3 nmol of H2O2 for 5 min at room temperature. This step was repeated twice with a period of 5 min of incubation for each addition. The reaction was stopped by diluting the mixture with 1 mL of 0.1% TFA. The radioiodinated peptide was purified by HPLC on a reverse-phase Vydac® C18 column with a 60-min linear gradient from 20% to 50% of acetonitrile in 0.1% TFA. The eluted radiolabelled tracer was collected, aliquoted (50×10^6 cpm/fraction) and stored at −80° C.
# Binding studies with MPE-298 were done with increasing concentrations from 0.01 to 5 μM of competition ligands. Nonspecific binding was defined as binding not displaced by 50 μM corresponding peptide. All peptide containing solutions were diluted in Buffer B. Buffer A and B were degassed under vacuum, and used in capped tubes in order to minimize lipid peroxidation. Before the incubation period, all tubes were put under a low flow of nitrogen. All material was kept on ice and the binding assay was performed in darkness. After an incubation period of 60 min at 22° C. (vortexing every 15 min), membranes were submitted to irradiation with UV lamps (365 nm) for 15 min at 4° C. After centrifugation at 12,000×g for 15 minutes, the pellets were resuspended in 40 μl of sample buffer (62 mM Tris-HCl, pH 6.8, 2% SDS, 10% glycerol, 15% 2-mercaptoethanol, and 0.05% bromophenol blue), and boiled for 5 min prior to being subjected to electrophoresis. Proteins (50 μg/40 μl) were separated on a 7.5% SDS-PAGE Bio-Rad® Mini-Protean electrophoresis system (150 V for 1 h). The gels resulting from SDS/PAGE were fixed, colored in Coomassie Brilliant Blue R-250, dried, exposed to a storage phosphor intensifying screen (Amersham Biosciences), and analysed using a Typhoon® PhosphorImager (GE Healthcare Life Sciences®). […] The curves were analysed by using software package (Graphpad® prism version 7.0).
# [3] = test system: R-FSL-1 (TLR2 agonist)-induced NO production in RAW macrophage cell line; experiment: Nitric oxide (NO) production induced by TLR2 agonist R-FSL-1 in RAW macrophage cell line; type: cell-based, murine; details: RAW macrophages; for suppression of R-FSL-1-mediated NO production: at the concentration tested (10^−6 or 10^−7 M), FIGS. 4A to 4F; for suppression of NO production compared with positive control MPE-001 at the same concentration / suppression of R-FSL-1-mediated NO production at 10^−7 M: 10^−7 M, FIG. 4F; for suppression of R-FSL-1-mediated NO production at 10^−7 M: further analyses; for R-FSL-1-mediated NO production, % of control: control = R-FSL-1 only, noticeable reduction without reaching significance (P<0.01)
# Experimental: The murine RAW1 macrophage cell line was obtained from American Type Cell Collection (ATCC #TIB-71), seeded at 1.5×10^5 cells/well in Dulbecco's Modified Eagle's medium (DMEM) containing 100 U/mL of penicillin (Pen) and 100 μg/mL of streptomycin (Strep) on a 48-well plate (Costar® #3548), and incubated at 37° C. with 5% CO2. After 2 h, the cell culture medium of adhered cells was removed and replaced by DMEM-Pen/Strep medium containing 0.2% of bovine serum albumin (BSA), and supplemented with the cyclic peptides at a concentration of 10^−6 or 10^−7 M. MPE-001 (DBG178, His-D-Trp-Ala-AzaTyr-D-Phe-Lys-NH2) and [azaLys^6]-GHRP-6 (His-D-Trp-Ala-Trp-D-Phe-azaLys-NH2, negative control) at 10^−6 M were used as positive and negative controls, respectively. After 1 h pre-incubation, the cells were stimulated overnight using the TLR2 ligand fibroblast-stimulating lipopeptide (R-FSL-1) (Invivogen® #L7022) at a concentration of 300 ng/mL. Supernatants were then collected for nitrite production analysis by fluorescence using 2,3-diaminonaphthalene (DAN). Briefly, 25 μL of sample was incubated with 0.5 μg of DAN in a 100 μL final volume of phosphate buffer (50 mM, pH 7.5) at room temperature in the dark. After 15 min, the reaction was stopped with 20 μL of NaOH (2.8N) and the plate was read using a fluorescence plate reader (TECAN® Safire, λexc 365 nm and λem 430 nm).
# [4] = test system: apoE−/− mice; experiment: Murine atherosclerosis model (apoE−/− mice on atherogenic diet), aortic lesions; type: in vivo; details: 300 nmol/kg daily s.c. for 8 weeks
# Experimental: Experiments were performed in male apoE−/− mice fed an atherogenic diet (D12108, cholate-free AIN-76A semi-purified diet, Research Diets Inc., New Brunswick, NJ) from 4 weeks of age. MPE-298 (300 nmol/kg), MPE-267 (300 nmol/kg) or vehicle (0.9% NaCl), were administered by daily by subcutaneous (s.c.) injections for 8 weeks, from 12 weeks of age, as shown schematically in FIG. 8A.
# [5] = test system: R-FSL-1 (TLR2 agonist)-induced TNF-α and CCL-2 release in RAW macrophages; experiment: R-FSL-1-induced TNF-α and CCL-2 release in RAW macrophages; type: cell-based, murine; details: 10^−7 M; remark: listed apart in the source
# T1 sequence (Q07969 whole entry): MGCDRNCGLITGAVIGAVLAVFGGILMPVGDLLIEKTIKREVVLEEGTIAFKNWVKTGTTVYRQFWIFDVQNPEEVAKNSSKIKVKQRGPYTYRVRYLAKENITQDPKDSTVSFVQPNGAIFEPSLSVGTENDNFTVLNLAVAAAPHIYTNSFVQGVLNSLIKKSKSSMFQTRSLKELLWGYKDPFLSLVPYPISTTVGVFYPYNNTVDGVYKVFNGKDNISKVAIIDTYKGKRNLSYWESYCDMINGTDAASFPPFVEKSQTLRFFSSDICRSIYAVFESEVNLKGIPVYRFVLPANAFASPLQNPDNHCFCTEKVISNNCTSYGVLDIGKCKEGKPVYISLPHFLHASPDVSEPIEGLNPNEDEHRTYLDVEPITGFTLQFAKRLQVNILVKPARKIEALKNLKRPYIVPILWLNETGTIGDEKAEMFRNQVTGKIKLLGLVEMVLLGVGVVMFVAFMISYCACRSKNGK
SMILES,effect on R-FSL-1-induced CCL-2 release [1],effect on R-FSL-1-induced TNF-α release [1],IC50 [2],suppression of R-FSL-1-mediated NO production [3],reduction of aortic lesions relative to 0.9% NaCl (vehicle) [4],suppression of NO production compared with positive control MPE-001 at the same concentration [3],suppression of R-FSL-1-mediated NO production at 10^−7 M [3],"R-FSL-1-mediated NO production, % of control [3]",binding to CD36 (in words) [2],inhibitory effect on R-FSL-1-induced CCL-2 release compared with reference standard DBG178 (MPE-001) [5]
CN1CC#CCN(NC(=O)[C@@H](Cc2c[nH]c3ccccc23)NC(=O)[C@@H](N)Cc2cnc[nH]2)C(=O)N[C@@H](Cc2c[nH]c3ccccc23)C(=O)N[C@H](Cc2ccccc2)C(=O)N[C@H](C(N)=O)CCCC1 [MPE-210],no significant effect,no significant effect,2.06 µM,,,,,,,
C=CCN1CC#CCN(NC(=O)[C@@H](Cc2c[nH]c3ccccc23)NC(=O)[C@@H](N)Cc2cnc[nH]2)C(=O)N[C@@H](Cc2c[nH]c3ccccc23)C(=O)N[C@H](Cc2ccccc2)C(=O)N[C@H](C(N)=O)CCCC1 [MPE-266],significant inhibitory effect,significant inhibitory effect,0.68 µM,significant suppression,,,,,,
C=CCN1CC#CCN(NC(=O)[C@H](C)N)C(=O)N[C@@H](C)C(=O)N[C@@H](Cc2c[nH]c3ccccc23)C(=O)N[C@H](Cc2ccccc2)C(=O)N[C@H](C(N)=O)CCCC1 [MPE-267],significant inhibitory effect,significant inhibitory effect,0.24 µM,significant suppression,28%,,,,,
C=CCN1CC#CCN(N)C(=O)N[C@H](Cc2c[nH]c3ccccc23)C(=O)N[C@@H](C)C(=O)N[C@@H](Cc2c[nH]c3ccccc23)C(=O)N[C@H](Cc2ccccc2)C(=O)N[C@H](C(N)=O)CCCC1 [MPE-268],no significant effect,no significant effect,,,,more important,significant suppression,about 80 % of control,no significant binding affinity,
C=CCN1CC#CCN(NC(=O)[C@H](C)NC(C)=O)C(=O)N[C@H](Cc2c[nH]c3ccccc23)C(=O)N[C@@H](C)C(=O)N[C@@H](Cc2c[nH]c3ccccc23)C(=O)N[C@H](Cc2ccccc2)C(=O)N[C@H](C(N)=O)CCCC1 [MPE-308],significant inhibitory effect,significant inhibitory effect,0.67 µM,,,more important,significant suppression,about 80 % of control,,
C=CCN1CC#CCN(NC(C)=O)C(=O)N[C@H](Cc2c[nH]c3ccccc23)C(=O)N[C@@H](C)C(=O)N[C@@H](Cc2c[nH]c3ccccc23)C(=O)N[C@H](Cc2ccccc2)C(=O)N[C@H](C(N)=O)CCCC1 [MPE-310],significant inhibitory effect,significant inhibitory effect,0.89 µM,,,more important,significant suppression,about 80 % of control,,significantly higher
